Source: ChEMBL document CHEMBL5058564, “EUbOPEN Chemogenomics Library 2 (Incucyte)” (2022)

Columns and labels:
Assay type in all cases: toxicity, cell-based
U2OS = test: Incucyte cell viability with U2OS; conditions: human, 10 µM, compound concentration 10 uM
HEK-293T = test: Incucyte cell viability with HEK293T; conditions: human, 10 µM, compound concentration 10 uM
Fibroblast = test: Incucyte cell viability with human fibroblast; conditions: 10 µM, compound concentration 10 uM
[1] = 0 h, replicate number 2, timepoint 0 hours
[2] = 12 h, replicate number 2, timepoint 12 hours
[3] = 6 h, replicate number 1, timepoint 6 hours
[4] = 6 h, replicate number 2, timepoint 6 hours
[5] = 12 h, replicate number 1, timepoint 12 hours
[6] = 18 h, replicate number 1, timepoint 18 hours
[7] = 18 h, replicate number 2, timepoint 18 hours
[8] = 24 h, replicate number 1, timepoint 24 hours
[9] = 24 h, replicate number 2, timepoint 24 hours
[10] = 0 h, replicate number 1, timepoint 0 hours
Also: unitless GR value; below 1 slowed growth and below 0 cell loss.

Structure (SMILES) | Growth Rate (U2OS; [1]) | Growth Rate (HEK-293T; [2]) | Growth Rate (Fibroblast; [3]) | Growth Rate (Fibroblast; [5]) | Growth Rate (Fibroblast; [6]) | Growth Rate (Fibroblast; [8]) | Growth Rate (Fibroblast; [9]) | Growth Rate (U2OS; [3]) | Growth Rate (U2OS; [6]) | Growth Rate (U2OS; [7]) | Growth Rate (U2OS; [9]) | Growth Rate (HEK-293T; [1]) | Growth Rate (HEK-293T; [4]) | Growth Rate (HEK-293T; [5]) | Growth Rate (HEK-293T; [6]) | Growth Rate (HEK-293T; [8]) | Growth Rate (Fibroblast; [10]) | Growth Rate (Fibroblast; [1]) | Growth Rate (U2OS; [10]) | Growth Rate (U2OS; [4]) | other results
CC(F)(F)CN1CCOc2c(nn(-c3ccccc3Cl)c2-c2ccc(Cl)cc2)C1=O | -1 | 0.82 | -0.37 | 0.01 | -0.21 | -0.09 | 0.06 | – | – | – | – | – | – | – | – | – | – | – | – | – | Growth Rate (Fibroblast; [4]): 0.94; Growth Rate (Fibroblast; [2]): 0.22; Growth Rate (Fibroblast; [7]): 0.75
C[C@H]1CN(C[C@H](Cc2ccccc2)C(=O)NCC(=O)O)CC[C@@]1(C)c1cccc(O)c1 [ALVIMOPAN] | 0.76 | 0.53 | – | – | – | – | – | 0.22 | 0.91 | 0.92 | 0.94 | 0.08 | 0.52 | 0.9 | 1 | 0.93 | 0.37 | -0.31 | – | – | Growth Rate (U2OS; [2]): 0.99; Growth Rate (HEK-293T; [10]): 0.62; Growth Rate (HEK-293T; [7]): 0.88; Growth Rate (HEK-293T; [9]): 0.85
O=S(=O)(c1ccccc1)c1cnc2c(N3CCNCC3)cccc2c1 [INTEPIRDINE] | – | – | 0.23 | 0.57 | 0.61 | 0.42 | 0.98 | – | – | 0.82 | 0.84 | 0.98 | – | – | – | – | 0.87 | 0.36 | -0.78 | 0.23 | Growth Rate (U2OS; [2]): 0.78; Growth Rate (HEK-293T; [10]): 1; Growth Rate (Fibroblast; [7]): 0.94
COC(=O)Nc1nc2ccc(C(=O)c3cccs3)cc2[nH]1 [NOCODAZOLE] | – | -0.32 | -0.86 | -0.6 | -0.54 | -0.33 | 0.08 | 0.3 | 0.03 | -0.36 | -0.35 | – | -0.49 | -0.24 | -0.22 | -0.22 | – | – | – | 0.24 | Growth Rate (U2OS; [5]): 0.1; Growth Rate (U2OS; [2]): -0.16; Growth Rate (U2OS; [8]): -0.06; Growth Rate (HEK-293T; [3]): -0.46; Growth Rate (HEK-293T; [7]): -0.34; Growth Rate (HEK-293T; [9]): -0.26; Growth Rate (Fibroblast; [4]): -0.39; Growth Rate (Fibroblast; [2]): -0.2; Growth Rate (Fibroblast; [7]): -0.04
Br.CS(=O)(=O)Nc1c(O)ccc2c1CCCC2C1=NCCN1 (stereo not drawn) | -1 | – | – | – | – | 0.94 | – | -0.8 | 0.68 | – | – | – | 0.33 | 0.92 | – | – | 0.32 | 0.39 | – | – | Growth Rate (U2OS; [5]): 0.72; Growth Rate (U2OS; [8]): 0.86
CN[C@@H]1Cc2cccc3[nH]c(=O)n(c23)C1.O=C(O)/C=C\C(=O)O | -1 | – | -0.17 | 0.68 | 0.81 | 0.5 | – | – | 0.71 | 0.85 | 0.98 | – | 0.88 | – | 0.9 | 0.79 | – | – | 0.11 | – | Growth Rate (U2OS; [8]): 0.89; Growth Rate (HEK-293T; [3]): 0.74; Growth Rate (HEK-293T; [7]): 0.98; Growth Rate (Fibroblast; [4]): 0.8
CCCCOCCOc1nc(-c2ccc(C(=O)O)c(F)c2)sc1C | -0.3 | 0.88 | 0.05 | 0.16 | 0.35 | 0.23 | 0.7 | 0.21 | 0.88 | 0.86 | 0.84 | 0.25 | 0.87 | – | 0.94 | 0.95 | – | -0.25 | -0.03 | 0.97 | Growth Rate (U2OS; [5]): 0.49; Growth Rate (U2OS; [8]): 0.94; Growth Rate (HEK-293T; [10]): 0.61; Growth Rate (HEK-293T; [7]): 0.82; Growth Rate (HEK-293T; [9]): 0.69; Growth Rate (Fibroblast; [2]): 0.63; Growth Rate (Fibroblast; [7]): 0.73
C[S+](C)[O-] [DIMETHYL SULFOXIDE] | -0.56 | – | 0.29 | 0.81 | – | – | 0.93 | 0.96 | 0.94 | 0.98 | – | 0.67 | – | – | 0.93 | – | – | 0.18 | 0.71 | 0.93 | Growth Rate (U2OS; [8]): 0.98; Growth Rate (HEK-293T; [10]): 0.62; Growth Rate (Fibroblast; [2]): 0.86
c1cc(OCCCN2CCCCC2)ccc1CN1CCCCC1 [JNJ-5207852] | – | – | 0.31 | – | – | 0.68 | – | – | – | 0.94 | – | – | 0.82 | – | – | – | 0.03 | – | -0.13 | 0.76 | Growth Rate (U2OS; [2]): 0.92; Growth Rate (Fibroblast; [2]): 0.6
CN(C)CCCc1cc(C(=O)Nc2ccc(-c3ccncc3)cc2)ccc1O.Cl.Cl | -0.87 | 0.93 | 0.34 | 0.34 | 0 | -0.07 | 0.69 | – | – | – | – | 0.49 | 0.48 | 0.69 | 0.69 | 0.67 | 0.85 | 0.18 | -0.09 | – | Growth Rate (HEK-293T; [10]): 0.52; Growth Rate (HEK-293T; [3]): 0.98; Growth Rate (HEK-293T; [9]): 0.98; Growth Rate (Fibroblast; [4]): 0.16; Growth Rate (Fibroblast; [7]): 0.66
O=C(O)CCc1ccc(NCc2cccc(Oc3ccccc3)c2)cc1 [GW9508] | 0.8 | – | – | 1 | – | – | – | – | – | 0.97 | – | 0.79 | – | – | – | 0.98 | -0.2 | 0.43 | – | 0.91 | Growth Rate (U2OS; [5]): 1
CCCN(CCC)[C@@H]1CCc2ccc3[nH]c(C#N)cc3c2C1.Cl | 0.9 | – | 0.01 | – | 0.97 | 0.95 | – | 0.8 | 0.73 | – | – | 0.54 | – | 0.81 | – | 1 | – | -0.06 | 0.61 | – | Growth Rate (U2OS; [8]): 0.95; Growth Rate (HEK-293T; [10]): 0.55; Growth Rate (HEK-293T; [3]): 0.81; Growth Rate (HEK-293T; [9]): 0.95
CN(C)CCN(Cc1ccc(-c2ccc(CNCCc3ccccc3)cc2)cc1)C(=O)CCC1CCCC1.Cl.Cl | – | -0.78 | -1 | -0.99 | -0.96 | -0.93 | -0.98 | -1 | -0.92 | -0.64 | -0.58 | – | -0.92 | -0.74 | -0.55 | -0.46 | – | – | – | -0.96 | Growth Rate (U2OS; [5]): -0.99; Growth Rate (U2OS; [2]): -0.81; Growth Rate (U2OS; [8]): -0.86; Growth Rate (HEK-293T; [3]): -0.93; Growth Rate (HEK-293T; [7]): -0.67; Growth Rate (HEK-293T; [9]): -0.59; Growth Rate (Fibroblast; [7]): -0.99
O=c1nc2[nH]c3ccccc3nc-2c(=O)[nH]1 [ALLOXAZINE] | -1 | – | 0.04 | – | – | – | – | – | – | 0.95 | – | 0.68 | – | 0.97 | 0.81 | 0.9 | -0.4 | 0.73 | 0.16 | – | –
Cc1ccccc1N1CCN(CCc2nnc3n2CCCC3)CC1.Cl [DAPIPRAZOLE HYDROCHLORIDE] | – | – | – | 0.81 | – | 0.68 | – | 0.94 | – | – | – | -0.18 | – | – | 0.93 | 0.96 | -0.42 | 0.16 | 0.33 | – | Growth Rate (U2OS; [5]): 0.78; Growth Rate (HEK-293T; [3]): 0.83; Growth Rate (Fibroblast; [4]): 0.85
C[C@]12N[C@H](Cc3ccccc31)c1ccccc12 [DIZOCILPINE] | – | 0.84 | 0.45 | 0.08 | 0.43 | 0.25 | – | 0.6 | 0.97 | 0.93 | 0.98 | – | – | – | – | – | – | 0.6 | – | 0.81 | Growth Rate (U2OS; [2]): 0.75; Growth Rate (HEK-293T; [7]): 0.88; Growth Rate (HEK-293T; [9]): 1
